Reference: BindingDB's records for doi:10.1016/j.bmcl.2011.01.015 (Incyte, 2011)

Assay: Antagonist activity at human CCR5 receptor by chemotaxis assay

Q: Which IC50 does the source give for `CO[C@@H]1COCC[C@@H]1N[C@@H]1CC[C@](CC(F)(F)F)(C(=O)N2CCN(c3cc(C(F)(F)F)ccn3)CC2)C1` [((1S,3R)-3-((3S,4S)-3-methoxy-tetrahydro-2H-pyran-4-ylamino)-1-(2,2,2-trifluoroethyl)cyclopentyl)(4-(4-(trifluoromethyl)pyridin-2-yl)piperazin-1-yl)methanone] here?
A: 11 nM
